Measurements from ChEMBL document CHEMBL4350971, “Discovery of tropinone-thiazole derivatives as potent caspase 3/7 activators, and noncompetitive tyrosinase inhibitors with high antiproliferative activity: Rational design, one-pot tricomponent synthesis, and lipophilicity determination” (Eur J Med Chem, 2019).
Activity calls are given as the source filed them. No cut-off for these calls is given here.

T1: Tyrosinase (Agaricus bisporus, UniProt O42713)
T1 sequence (O42713 whole entry): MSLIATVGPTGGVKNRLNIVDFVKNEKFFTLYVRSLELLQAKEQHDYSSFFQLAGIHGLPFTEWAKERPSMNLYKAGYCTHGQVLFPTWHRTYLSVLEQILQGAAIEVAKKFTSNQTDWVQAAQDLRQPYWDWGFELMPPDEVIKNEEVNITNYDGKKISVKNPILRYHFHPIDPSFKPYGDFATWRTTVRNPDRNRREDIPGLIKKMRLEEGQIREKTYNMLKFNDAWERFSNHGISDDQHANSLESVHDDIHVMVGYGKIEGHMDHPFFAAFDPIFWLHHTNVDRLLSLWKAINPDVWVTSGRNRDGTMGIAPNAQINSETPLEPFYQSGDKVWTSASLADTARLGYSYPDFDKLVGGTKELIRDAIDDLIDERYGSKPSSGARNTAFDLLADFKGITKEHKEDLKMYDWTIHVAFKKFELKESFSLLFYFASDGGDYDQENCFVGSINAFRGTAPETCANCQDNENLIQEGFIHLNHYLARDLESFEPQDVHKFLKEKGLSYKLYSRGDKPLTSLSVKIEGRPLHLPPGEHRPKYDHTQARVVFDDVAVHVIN

T2: Tyrosinase (Agaricus bisporus) (UniProt O42713)
T2 sequence (whole entry): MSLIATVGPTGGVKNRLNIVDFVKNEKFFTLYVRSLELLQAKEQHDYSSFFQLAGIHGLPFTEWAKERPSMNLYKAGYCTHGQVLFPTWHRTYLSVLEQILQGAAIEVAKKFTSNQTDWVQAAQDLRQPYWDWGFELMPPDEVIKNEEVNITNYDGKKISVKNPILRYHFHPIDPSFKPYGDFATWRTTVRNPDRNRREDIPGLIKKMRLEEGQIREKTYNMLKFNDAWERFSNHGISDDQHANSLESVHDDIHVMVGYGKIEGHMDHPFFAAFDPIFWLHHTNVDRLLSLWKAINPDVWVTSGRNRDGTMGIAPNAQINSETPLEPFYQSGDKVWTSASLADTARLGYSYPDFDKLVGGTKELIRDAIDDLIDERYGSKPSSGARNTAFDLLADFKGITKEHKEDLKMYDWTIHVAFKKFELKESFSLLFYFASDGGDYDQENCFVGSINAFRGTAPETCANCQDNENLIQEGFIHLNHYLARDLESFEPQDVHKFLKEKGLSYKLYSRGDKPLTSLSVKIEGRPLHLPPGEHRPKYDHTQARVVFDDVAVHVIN


Key:
[1] = test system: A549; assay: Induction of apoptosis in human A549 cells assessed as fold increase in caspase 3/7 activation using Ac-DEVD-ACC as fluorogenic substrate at 5 ug/ml incubated for 72 hrs by fluorescence assay relative to control; type: functional
[2] = test system: BALB/3T3; assay: Antiproliferative activity against mouse BALB/3T3 cells incubated for 72 hrs by SRB assay; type: cell-based; details: BALB/3T3, 72 h
[3] = test system: B16-F10; assay: Antiproliferative activity against mouse B16F10 cells incubated for 72 hrs by MTT assay; type: functional, cell-based; details: B16-F10, 72 h
[4] = test system: MCF7; assay: Antiproliferative activity against human MCF7 cells incubated for 72 hrs by SRB assay; type: functional, cell-based; details: MCF7, 72 h
[5] = test system: MV4-11; assay: Antiproliferative activity against human MV4-11 cells incubated for 72 hrs by MTT assay; type: functional, cell-based; details: MV4-11, 72 h
[6] = test system: A549; assay: Antiproliferative activity against human A549 cells incubated for 72 hrs by SRB assay; type: functional, cell-based; details: A549, 72 h
[7] = molecular target: T1, Tyrosinase; assay: Inhibition of mushroom tyrosinase using L-dopa as substrate incubated for 30 mins by spectrophotometric method
[8] = Lipophilicity, chromatographic lipophilicity index of the compound in methanol by UPLC-MS/MS; type: physicochemical
[9] = test system: MCF7; assay: Antiproliferative activity against human MCF7 cells reduction in cell viability; type: functional, cell-based
[10] = molecular target: T2, Tyrosinase (Agaricus bisporus); assay: Ratio of IC50 for ascorbic acid to IC50 for test compound for inhibition of mushroom tyrosinase using L-dopa as substrate incubated for 30 mins by spectrophotometric method
[11] = test system: A549; assay: Potency index, ratio of chlorambucil to ratio of test compound for induction of apoptosis in human A549 cells; type: functional
[12] = molecular target: T2, Tyrosinase (Agaricus bisporus); assay: Ratio of IC50 for kojic acid to IC50 for test compound for inhibition of mushroom tyrosinase using L-dopa as substrate incubated for 30 mins by spectrophotometric method
[13] = molecular target: T2, Tyrosinase (Agaricus bisporus); assay: Inhibition of mushroom tyrosinase assessed as reduction in peak intensity at 25 mM using L-dopa as substrate incubated for 30 mins by UV-vis spectra analysis
[14] = compound: CN1[C@@H]2CC[C@H]1C/C(=N/Nc1nc(-c3ccc(F)cc3)cs1)C2; assay: (§1) Noncompetitive-inhibition of mushroom tyrosinase assessed as Vmax at 0.1 to 0.25 mM using 0.1 to 0.25 mM L-dopa as substrate incubated for 20 mins by Lineweaver-Burk double reciprocal plot analysis; details: Agaricus bisporus
[15] = compound: Cc1ccc(-c2csc(N/N=C3\C[C@H]4CC[C@@H](C3)N4C)n2)cc1; assay: as §1; details: Agaricus bisporus
[16] = compound: CN1[C@@H]2CC[C@H]1C/C(=N/Nc1nc(-c3ccc(Cl)cc3)cs1)C2; assay: as §1; details: Agaricus bisporus
[17] = compound: CN1[C@@H]2CC[C@H]1C/C(=N/Nc1nc(-c3ccc(Br)cc3)cs1)C2; assay: as §1; details: Agaricus bisporus
[18] = compound: CN1[C@@H]2CC[C@H]1C/C(=N/Nc1nc(-c3ccc(Cl)c(Cl)c3)cs1)C2; assay: as §1; details: Agaricus bisporus
[19] = compound: CN1[C@@H]2CC[C@H]1C/C(=N/Nc1nc(-c3ccc(C(F)(F)F)cc3)cs1)C2; assay: as §1; details: Agaricus bisporus
[20] = compound: CN1[C@@H]2CC[C@H]1C/C(=N/Nc1nc(-c3ccc(N=[N+]=[N-])cc3)cs1)C2; assay: as §1; details: Agaricus bisporus
[21] = compound: CN1[C@@H]2CC[C@H]1C/C(=N/Nc1nc(-c3ccc(Cl)cc3Cl)cs1)C2; assay: as §1; details: Agaricus bisporus
[22] = compound: CN1[C@@H]2CC[C@H]1C/C(=N/Nc1nc(-c3ccc(Cl)cc3)cs1)C2; assay: (§2) Noncompetitive-inhibition of mushroom tyrosinase assessed as Km at 0.1 to 0.25 mM using 0.1 to 0.25 mM L-dopa as substrate incubated for 20 mins by Lineweaver-Burk double reciprocal plot analysis; details: Agaricus bisporus
[23] = compound: CN1[C@@H]2CC[C@H]1C/C(=N/Nc1nc(-c3ccc(Br)cc3)cs1)C2; assay: as §2; details: Agaricus bisporus
[24] = compound: CN1[C@@H]2CC[C@H]1C/C(=N/Nc1nc(-c3ccc(Cl)c(Cl)c3)cs1)C2; assay: as §2; details: Agaricus bisporus
[25] = compound: CN1[C@@H]2CC[C@H]1C/C(=N/Nc1nc(-c3ccc(N=[N+]=[N-])cc3)cs1)C2; assay: as §2; details: Agaricus bisporus
[26] = compound: CN1[C@@H]2CC[C@H]1C/C(=N/Nc1nc(-c3ccc(Cl)cc3Cl)cs1)C2; assay: as §2; details: Agaricus bisporus

Row | Molecule | Activity [1] | IC50 [2] [µM] | IC50 [3] [µM] | IC50 [4] [µM] | IC50 [5] [µM] | IC50 [6] [µM] | IC50 [7] [µM] | logKw [8] | fold change (FC) [1] | Ratio [11] | also measured
1 | CN1[C@@H]2CC[C@H]1C/C(=N/Nc1nc(-c3ccc(F)cc3)cs1)C2 | inactive | 19.1 | > 15.1 | 19.2 | 13.7 | 42.8 | 123 | -3.058 |  |  | 
2 | C/C(=N\Nc1nc(-c2ccc(Cl)c(Cl)c2)cs1)c1ccc(Nc2nc(N)nc(N)n2)cc1 |  |  |  |  | 3.56 |  |  |  |  |  | IC50 [9]: 7.59 µM
3 | Cc1ccc(-c2csc(N/N=C3\C[C@H]4CC[C@@H](C3)N4C)n2)cc1 | inactive | 10.2 | 10.6 | 11.1 | 10.1 | 17.3 | 101 | -2.654 |  |  | 
4 | CN1[C@@H]2CC[C@H]1C/C(=N/Nc1nc(-c3ccc(N=[N+]=[N-])cc3)cs1)C2 | inactive | 9.05 | 5.91 | 8.94 | 9.87 | 11 | 72.3 | -3.151 |  |  | 
5 | CN1[C@@H]2CC[C@H]1C/C(=N/Nc1nc(-c3ccc(Cl)cc3Cl)cs1)C2 |  | 8.16 | 5.48 | 7.05 | 6.82 | 7.47 | 3.51 | -3.79 | 3 - 5 | 3 - 5 | Ratio IC50 [10]: 120; Ratio IC50 [12]: 22; inhibition [13]: Active
6 | CN1[C@@H]2CC[C@H]1C/C(=N/Nc1nc(-c3ccc(Br)cc3)cs1)C2 |  | 8.18 | 5.44 | 7.67 | 8.36 | 8.15 | 85 | -3.066 | 3 - 5 | 3 - 5 | 
7 | CN1[C@@H]2CC[C@H]1C/C(=N/Nc1nc(-c3ccc(C(F)(F)F)cc3)cs1)C2 |  | 8.41 | 5.86 | 6.02 | 6.68 | 7.54 | 33.7 | -3.25 | 3 - 5 | 3 - 5 | 
8 | Tyrosinase (Agaricus bisporus), O42713 (protein) MSLIATVGPTGGVKNRLNIVDFVKNEKFFTLYVRSLELLQAKEQHDYSSFFQLAGIHGLPFTEWAKERPSMNLYKAGYCTHGQVLFPTWHRTYLSVLEQILQGAAIEVAKKFTSNQTDWVQAAQDLRQPYWDWGFELMPPDEVIKNEEVNITNYDGKKISVKNPILRYHFHPIDPSFKPYGDFATWRTTVRNPDRNRREDIPGLIKKMRLEEGQIREKTYNMLKFNDAWERFSNHGISDDQHANSLESVHDDIHVMVGYGKIEGHMDHPFFAAFDPIFWLHHTNVDRLLSLWKAINPDVWVTSGRNRDGTMGIAPNAQINSETPLEPFYQSGDKVWTSASLADTARLGYSYPDFDKLVGGTKELIRDAIDDLIDERYGSKPSSGARNTAFDLLADFKGITKEHKEDLKMYDWTIHVAFKKFELKESFSLLFYFASDGGDYDQENCFVGSINAFRGTAPETCANCQDNENLIQEGFIHLNHYLARDLESFEPQDVHKFLKEKGLSYKLYSRGDKPLTSLSVKIEGRPLHLPPGEHRPKYDHTQARVVFDDVAVHVIN |  |  |  |  |  |  |  |  |  |  | Vmax [14]: -1.58 abs/min; Vmax [15]: -16.5 abs/min; Vmax [16]: 6.24 abs/min; Vmax [17]: 2.53 abs/min; Vmax [18]: 5.59 abs/min; Vmax [19]: -12.8 abs/min; Vmax [20]: 5.05 abs/min; Vmax [21]: 0.0126 abs/min; Km [22]: 360 µM; Km [23]: 184 µM; Km [24]: 180 µM; Km [25]: 466 µM; Km [26]: 0.278 µM
